# In PMC5988755, “First characterization of a microsporidial triosephosphate isomerase and the biochemical mechanisms of its inactivation to propose a new druggable target” (Scientific Reports, 2018):
# T1: EiTIM (triosephosphate isomerase of E. intestinalis) (Encephalitozoon intestinalis, UniProt E0SA87)
# T1 construct: gene Eint_110100; full length, synthetic codon-optimised gene (silent A479G) in pET-3aHisTEV, E. coli BL21(DE3)pLysS; N-terminal His-tag removed with TEV protease; homodimer
# T1 sequence (E0SA87 1-242): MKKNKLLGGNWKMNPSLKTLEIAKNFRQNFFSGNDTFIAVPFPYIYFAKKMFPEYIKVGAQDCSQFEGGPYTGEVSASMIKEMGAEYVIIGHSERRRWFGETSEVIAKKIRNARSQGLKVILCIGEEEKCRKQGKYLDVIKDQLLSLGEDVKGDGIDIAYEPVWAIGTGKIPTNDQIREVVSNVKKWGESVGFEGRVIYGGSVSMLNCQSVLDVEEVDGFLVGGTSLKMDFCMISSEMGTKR
# B1: EiTIM (triosephosphate isomerase of E. intestinalis) (Encephalitozoon intestinalis ATCC 50506) (protein)
# chain: MKKNKLLGGNWKMNPSLKTLEIAKNFRQNFFSGNDTFIAVPFPYIYFAKKMFPEYIKVGAQDCSQFEGGPYTGEVSASMIKEMGAEYVIIGHSERRRWFGETSEVIAKKIRNARSQGLKVILCIGEEEKCRKQGKYLDVIKDQLLSLGEDVKGDGIDIAYEPVWAIGTGKIPTNDQIREVVSNVKKWGESVGFEGRVIYGGSVSMLNCQSVLDVEEVDGFLVGGTSLKMDFCMISSEMGTKR
# Assays:
# [1] = molecular target: T1, EiTIM (triosephosphate isomerase of E. intestinalis); experiment: thermal denaturation by CD at […] nm of derivatized enzyme; type: binding; settings: covalent; 0.5 mM compound, 2 h at 37 °C, excess removed; untreated control Tm 52.8 ± 1.5 °C
# [2] = molecular target: T1, EiTIM (triosephosphate isomerase of E. intestinalis); experiment: residual activity after incubation, alpha-GDH coupled assay (NADH, […] nm); type: biochemical; settings: covalent; 0.5 mM compound, 2 h at 37 °C; residual activity relative to untreated control; 3 Cys derivatized per subunit
# [3] = molecular target: T1, EiTIM (triosephosphate isomerase of E. intestinalis); experiment: as above; type: biochemical; settings: covalent (Cys derivatization suggested), 0.5 mg/mL enzyme, 2 h at 37 °C, drug 0-50 μM
# [4] = molecular target: T1, EiTIM (triosephosphate isomerase of E. intestinalis); experiment: as above; type: biochemical; settings: read-out: 50% inactivation
# [5] = substrate: O=C[C@H](O)COP(=O)(O)O; experiment: purified protein; settings: GAP to DHAP direction, 25 °C, 0.2 mM NADH, 0.9 U alpha-GDH, GAP 0.2-10 mM
molecule,measurement,setting,value
"CS(=O)(=O)SCCS(=O)(=O)O [MTSES, sodium (2-sulfonatoethyl) methanethiosulfonate]",Tm (°C)^*,[1],48.6 ± 1.9 °C
same,Activity (%)^*,[2],2.4 ± 1.1%
COc1ccc2[nH]c([S+]([O-])Cc3ncc(C)c(OC)c3C)nc2c1 (centres unmarked) [omeprazole],50% inactivation,"[3]; omeprazole pre-activated with acid (HCl, 3 h)","sulbutiamine was two- and three-fold more effective than rabeprazole and omeprazole, respectively"
CC(=C(CCOC(=O)C(C)C)SSC(CCOC(=O)C(C)C)=C(C)N(C=O)Cc1cnc(C)nc1N)N(C=O)Cc1cnc(C)nc1N (stereo in doubt) [sulbutiamine],IC50,[4],2.5 µM
"O=C(O)c1cc(SSc2ccc([N+](=O)[O-])c(C(=O)O)c2)ccc1[N+](=O)[O-] [DTNB, 5,5′-dithiobis(2-nitrobenzoic acid)]",IC50,[4],25 µM
CSS(C)(=O)=O [MMTS],Tm (°C)^*,[1],49.8 ± 2.1 °C
same,Activity (%)^*,[2],17.3 ± 5.5%
COCCCOc1ccnc(C[S+]([O-])c2nc3ccccc3[nH]2)c1C (centres unmarked) [rabeprazole],50% inactivation,[3],"sulbutiamine was two- and three-fold more effective than rabeprazole and omeprazole, respectively"
B1,Km,[5],830 ± 200 µM
same,kcat,[5],1680 s⁻¹
same,kcat/Km,[5],2e+06 M⁻¹ s⁻¹
